{"source": "ChEMBL document CHEMBL1201862", "about": "“PubChem BioAssay data set” (2004)", "key": {"[1]": {"molecular_target": "T1, Sentrin-specific protease 6 (Homo sapiens, UniProt Q9GZR1)", "T1 sequence (Q9GZR1 whole entry)": "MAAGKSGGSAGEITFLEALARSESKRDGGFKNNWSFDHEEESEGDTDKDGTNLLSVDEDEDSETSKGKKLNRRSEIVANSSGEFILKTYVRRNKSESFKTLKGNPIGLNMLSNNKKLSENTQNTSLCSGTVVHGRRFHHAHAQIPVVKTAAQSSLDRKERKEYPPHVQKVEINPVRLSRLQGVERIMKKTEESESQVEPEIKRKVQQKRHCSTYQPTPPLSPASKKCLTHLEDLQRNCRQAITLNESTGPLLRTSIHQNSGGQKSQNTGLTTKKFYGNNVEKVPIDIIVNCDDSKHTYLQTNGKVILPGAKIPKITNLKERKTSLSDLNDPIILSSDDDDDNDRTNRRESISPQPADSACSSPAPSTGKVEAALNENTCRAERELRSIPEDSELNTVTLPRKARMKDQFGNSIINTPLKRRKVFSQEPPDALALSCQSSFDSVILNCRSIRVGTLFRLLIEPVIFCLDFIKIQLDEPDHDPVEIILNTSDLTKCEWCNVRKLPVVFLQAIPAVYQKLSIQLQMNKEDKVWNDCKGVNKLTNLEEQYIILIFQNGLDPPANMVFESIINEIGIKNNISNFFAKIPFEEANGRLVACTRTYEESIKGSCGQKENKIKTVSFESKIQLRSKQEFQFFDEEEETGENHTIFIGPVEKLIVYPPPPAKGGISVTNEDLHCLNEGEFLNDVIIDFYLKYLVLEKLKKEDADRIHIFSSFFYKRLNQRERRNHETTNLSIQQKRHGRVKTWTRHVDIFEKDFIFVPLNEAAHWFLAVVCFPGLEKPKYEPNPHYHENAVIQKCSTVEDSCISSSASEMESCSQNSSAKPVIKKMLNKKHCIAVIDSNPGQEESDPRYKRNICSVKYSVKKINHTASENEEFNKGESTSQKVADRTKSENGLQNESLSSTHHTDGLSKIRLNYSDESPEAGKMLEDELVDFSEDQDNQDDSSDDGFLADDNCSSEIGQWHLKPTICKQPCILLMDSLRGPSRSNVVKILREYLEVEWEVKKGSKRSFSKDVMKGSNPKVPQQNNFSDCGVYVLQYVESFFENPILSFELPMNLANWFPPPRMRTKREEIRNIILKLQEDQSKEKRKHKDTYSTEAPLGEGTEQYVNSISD", "assay": "SAR Analysis of small molecule inhibitors of Sentrin-specific protease 6 (SENP6) using a Luminescent assay. [Related pubchem assays (depositor defined):AID2582, AID2599]", "type": "functional"}, "[2]": {"molecular_target": "T2, Sentrin-specific protease 7 (Homo sapiens, UniProt Q9BQF6)", "T2 sequence (Q9BQF6 whole entry)": "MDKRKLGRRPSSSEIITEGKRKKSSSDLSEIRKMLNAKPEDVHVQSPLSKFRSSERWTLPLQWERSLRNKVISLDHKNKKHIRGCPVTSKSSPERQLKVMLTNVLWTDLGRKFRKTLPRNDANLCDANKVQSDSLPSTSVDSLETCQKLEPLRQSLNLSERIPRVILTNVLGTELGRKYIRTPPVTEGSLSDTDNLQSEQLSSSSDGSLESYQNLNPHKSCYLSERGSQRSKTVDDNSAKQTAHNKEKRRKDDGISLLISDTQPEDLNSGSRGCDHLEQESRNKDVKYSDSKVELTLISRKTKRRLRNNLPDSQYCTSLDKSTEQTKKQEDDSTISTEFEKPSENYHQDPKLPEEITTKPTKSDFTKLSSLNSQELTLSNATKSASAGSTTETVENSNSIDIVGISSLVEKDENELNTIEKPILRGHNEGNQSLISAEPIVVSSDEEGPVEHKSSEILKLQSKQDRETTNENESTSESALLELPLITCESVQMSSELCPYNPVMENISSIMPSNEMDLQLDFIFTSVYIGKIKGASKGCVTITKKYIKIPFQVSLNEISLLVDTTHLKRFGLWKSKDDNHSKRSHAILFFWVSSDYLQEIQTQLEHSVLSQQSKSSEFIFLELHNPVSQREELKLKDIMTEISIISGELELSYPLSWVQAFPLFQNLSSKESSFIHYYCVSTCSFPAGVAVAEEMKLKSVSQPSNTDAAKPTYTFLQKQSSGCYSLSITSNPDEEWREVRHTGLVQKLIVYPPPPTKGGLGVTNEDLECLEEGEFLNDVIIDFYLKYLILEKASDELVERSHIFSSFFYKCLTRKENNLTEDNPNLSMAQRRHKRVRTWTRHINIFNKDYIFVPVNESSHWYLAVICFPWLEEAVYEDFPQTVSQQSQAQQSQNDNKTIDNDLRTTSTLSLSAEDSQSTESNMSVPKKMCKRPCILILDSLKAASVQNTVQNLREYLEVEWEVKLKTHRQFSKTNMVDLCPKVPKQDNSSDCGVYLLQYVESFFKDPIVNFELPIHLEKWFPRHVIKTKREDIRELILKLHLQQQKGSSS", "assay": "inhibition of human SENP7 cleavage activity – biochemical, luminescence, SAR follow-up (AID 504497)", "type": "functional"}, "[3]": {"molecular_target": "T3, Mannose-6-phosphate isomerase (Homo sapiens, UniProt P34949)", "T3 sequence (P34949 whole entry)": "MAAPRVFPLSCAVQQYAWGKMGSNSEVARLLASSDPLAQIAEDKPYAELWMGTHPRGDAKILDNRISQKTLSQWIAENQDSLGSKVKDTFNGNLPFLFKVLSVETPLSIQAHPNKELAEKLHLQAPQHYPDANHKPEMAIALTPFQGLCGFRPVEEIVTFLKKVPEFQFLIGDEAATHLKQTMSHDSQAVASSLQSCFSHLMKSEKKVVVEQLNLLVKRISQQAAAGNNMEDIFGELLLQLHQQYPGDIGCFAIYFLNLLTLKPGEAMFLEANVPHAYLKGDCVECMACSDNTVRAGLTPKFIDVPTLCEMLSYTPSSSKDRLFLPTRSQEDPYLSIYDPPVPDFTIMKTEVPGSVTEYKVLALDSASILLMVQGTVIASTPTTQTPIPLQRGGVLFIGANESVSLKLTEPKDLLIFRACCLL", "assay": "MPI inhibition at elevated mannose 6-phosphate – biochemical, fluorescence intensity, high mannose 6-phosphate, primary screen (AID 1220)"}, "[4]": {"molecular_target": "T1, Sentrin-specific protease 6", "type": "functional"}, "[5]": {"molecular_target": "T4, Sentrin-specific protease 8 (Homo sapiens, UniProt Q96LD8)", "T4 sequence (Q96LD8 whole entry)": "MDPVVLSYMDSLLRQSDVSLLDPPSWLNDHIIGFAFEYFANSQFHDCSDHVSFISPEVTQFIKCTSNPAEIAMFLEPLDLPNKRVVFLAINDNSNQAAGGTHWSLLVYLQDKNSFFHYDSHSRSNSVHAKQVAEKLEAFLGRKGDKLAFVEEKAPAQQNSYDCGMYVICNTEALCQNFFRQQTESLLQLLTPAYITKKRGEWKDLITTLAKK", "assay": "inhibition of human SENP8 cleavage activity – biochemical, luminescence, SAR follow-up (AID 504501)", "type": "functional"}, "[6]": {"molecular_target": "T5, Caspase-3 (Homo sapiens, UniProt P42574)", "T5 sequence (P42574 whole entry)": "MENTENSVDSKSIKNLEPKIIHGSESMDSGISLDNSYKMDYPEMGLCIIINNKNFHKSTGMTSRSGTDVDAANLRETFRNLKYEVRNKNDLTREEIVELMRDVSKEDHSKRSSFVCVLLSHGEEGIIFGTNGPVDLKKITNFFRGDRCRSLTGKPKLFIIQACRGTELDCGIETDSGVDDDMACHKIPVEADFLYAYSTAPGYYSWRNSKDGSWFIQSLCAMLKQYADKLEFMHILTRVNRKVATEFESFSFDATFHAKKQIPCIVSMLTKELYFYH", "type": "functional"}, "[7]": {"molecular_target": "T6, Polyadenylate-binding protein 1 (Homo sapiens, UniProt P11940)", "T6 sequence (P11940 whole entry)": "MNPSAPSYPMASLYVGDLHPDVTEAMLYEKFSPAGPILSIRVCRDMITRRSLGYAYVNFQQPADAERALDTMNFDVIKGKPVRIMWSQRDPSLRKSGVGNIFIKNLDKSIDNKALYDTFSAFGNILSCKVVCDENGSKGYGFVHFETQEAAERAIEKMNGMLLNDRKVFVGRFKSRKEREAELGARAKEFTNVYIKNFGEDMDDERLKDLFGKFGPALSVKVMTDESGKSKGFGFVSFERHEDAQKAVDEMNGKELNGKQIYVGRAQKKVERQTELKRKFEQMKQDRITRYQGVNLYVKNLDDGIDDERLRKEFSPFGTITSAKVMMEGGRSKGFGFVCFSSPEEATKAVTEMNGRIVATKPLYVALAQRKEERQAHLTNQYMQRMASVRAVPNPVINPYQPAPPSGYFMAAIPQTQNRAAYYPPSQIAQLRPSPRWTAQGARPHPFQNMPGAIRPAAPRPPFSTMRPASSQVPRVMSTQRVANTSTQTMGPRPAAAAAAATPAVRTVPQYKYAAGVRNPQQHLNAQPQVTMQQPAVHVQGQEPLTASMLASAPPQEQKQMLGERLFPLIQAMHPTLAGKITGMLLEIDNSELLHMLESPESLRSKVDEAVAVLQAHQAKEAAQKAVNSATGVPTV", "assay": "MLLE binding blockers, Cy5 peptide tracer – biochemical, fluorescence polarization, Cy5-PAM2 peptide, secondary, miRNA deadenylation inhibitor project, dose response (AID 602260)", "type": "functional", "details": "read-out: IC50_Mean"}, "[8]": {"molecular_target": "T4, Sentrin-specific protease 8", "type": "functional"}, "[9]": {"molecular_target": "T6, Polyadenylate-binding protein 1", "assay": "MLLE domain peptide-binding blockers, IC50 – biochemical, fluorescence polarization, FITC-PAM2 peptide, dose response (AID 602259)", "type": "functional", "details": "read-out: IC50_Mean"}, "[10]": {"molecular_target": "Dual specificity tyrosine-phosphorylation-regulated kinase 1A (Rattus norvegicus, UniProt Q63470)", "type": "biochemical, Homo sapiens"}, "[11]": {"molecular_target": "T2, Sentrin-specific protease 7", "type": "functional"}, "[12]": {"molecular_target": "T5, Caspase-3", "assay": "SAR Analysis of small molecule inhibitors of Sentrin-specific proteases (SENPs) using a Caspase-3 Selectivity assay. [Related pubchem assays (depositor defined):AID2540, AID2599, AID434973, AID489001]", "type": "functional"}, "[13]": {"molecular_target": "Genome polyprotein (dengue virus type 2, UniProt P29990)", "sequence (P29990 2492-3391 limits assumed)": "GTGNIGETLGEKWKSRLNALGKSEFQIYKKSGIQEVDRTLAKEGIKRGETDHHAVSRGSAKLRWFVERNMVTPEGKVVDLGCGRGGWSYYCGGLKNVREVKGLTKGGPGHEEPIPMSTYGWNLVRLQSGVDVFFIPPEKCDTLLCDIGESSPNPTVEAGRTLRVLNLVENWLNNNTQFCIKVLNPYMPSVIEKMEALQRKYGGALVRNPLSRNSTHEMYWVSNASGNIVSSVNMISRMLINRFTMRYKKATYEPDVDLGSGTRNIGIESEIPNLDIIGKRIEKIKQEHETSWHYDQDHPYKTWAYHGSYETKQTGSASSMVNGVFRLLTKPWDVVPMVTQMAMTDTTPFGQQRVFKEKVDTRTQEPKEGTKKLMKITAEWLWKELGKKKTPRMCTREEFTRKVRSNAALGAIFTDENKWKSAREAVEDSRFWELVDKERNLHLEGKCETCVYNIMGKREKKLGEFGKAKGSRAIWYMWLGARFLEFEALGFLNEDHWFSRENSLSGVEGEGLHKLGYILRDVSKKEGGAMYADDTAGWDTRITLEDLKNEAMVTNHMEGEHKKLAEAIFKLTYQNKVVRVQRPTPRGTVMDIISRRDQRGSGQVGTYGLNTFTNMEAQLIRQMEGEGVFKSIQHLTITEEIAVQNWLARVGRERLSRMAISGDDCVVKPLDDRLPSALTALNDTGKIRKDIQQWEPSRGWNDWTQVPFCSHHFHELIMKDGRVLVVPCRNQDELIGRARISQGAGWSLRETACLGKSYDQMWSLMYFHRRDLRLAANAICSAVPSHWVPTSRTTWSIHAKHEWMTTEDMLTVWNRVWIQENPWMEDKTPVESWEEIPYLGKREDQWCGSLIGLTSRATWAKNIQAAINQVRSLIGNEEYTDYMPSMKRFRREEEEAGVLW", "assay": "flavivirus cap methylation enzyme inhibition – biochemical, confirmation dose response, primary screen (AID 588689)", "type": "functional"}, "[14]": {"assay": "PKA-R1A complex activators, counter-screen titration – biochemical, Cy5-IP20 fluorescence polarization, 1536-well, triplicate, counter-screen for PKA-R2B activator project, dose response (AID 504896)"}, "[15]": {"assay": "Fluorescence polarization-based biochemical high throughput dose response assay for activators of the Protein Kinase A-R2B (PKA-R2B) complex. [Related pubchem assays (depositor defined):AID504700, AID504704, AID504796, AID504797]"}, "[16]": {"molecular_target": "T7, Bcl-2-like protein 10 (Homo sapiens, UniProt Q9HD36)", "T7 sequence (Q9HD36 whole entry)": "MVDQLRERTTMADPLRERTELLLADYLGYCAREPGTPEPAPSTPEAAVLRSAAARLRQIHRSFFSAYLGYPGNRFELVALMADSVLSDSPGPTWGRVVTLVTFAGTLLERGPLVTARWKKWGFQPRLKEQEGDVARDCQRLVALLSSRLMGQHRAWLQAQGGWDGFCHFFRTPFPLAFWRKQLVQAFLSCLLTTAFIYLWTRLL", "assay": "Isothermal titration calorimetry (ITC) with Bcl-B and compounds active in primary screen. [Related pubchem assays (depositor defined):AID1693]", "type": "functional"}, "[17]": {"tested_on": "Streptococcus", "assay": "GAS UMAA2166 growth inhibition – luminescence, BacTiterGlo, counter-screen for streptokinase expression inhibitor project, dose response (AID 1915);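 also: potency for reduction of bacterial viability or growth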", "type": "functional, organism-based"}, "[18]": {"tested_on": "Streptococcus sp. 'group A'", "assay": "Streptococcus pyogenes SK(-)GAS viability under kanamycin – luminescence, BacTiterGlo, confirmation, counter-screen for streptokinase expression inhibitor project, dose response (AID 1900)", "type": "functional, organism-based"}, "[19]": {"molecular_target": "T8, Streptokinase A (Streptococcus pyogenes serotype M1, UniProt P10520)", "T8 sequence (P10520 whole entry)": "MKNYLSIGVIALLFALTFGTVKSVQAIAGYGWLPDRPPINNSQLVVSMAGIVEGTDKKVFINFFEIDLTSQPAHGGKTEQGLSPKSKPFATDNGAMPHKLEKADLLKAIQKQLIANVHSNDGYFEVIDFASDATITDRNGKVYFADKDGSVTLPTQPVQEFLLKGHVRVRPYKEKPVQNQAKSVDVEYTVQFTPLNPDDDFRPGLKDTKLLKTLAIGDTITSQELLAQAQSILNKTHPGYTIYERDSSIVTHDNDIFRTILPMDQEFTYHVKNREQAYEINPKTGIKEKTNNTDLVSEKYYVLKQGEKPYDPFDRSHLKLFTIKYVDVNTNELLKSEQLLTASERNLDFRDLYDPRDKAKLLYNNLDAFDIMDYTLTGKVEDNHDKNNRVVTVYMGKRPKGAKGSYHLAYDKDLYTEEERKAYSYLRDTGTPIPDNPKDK", "assay": "viability-normalized secreted streptokinase activity reduction – plasminogen activation absorbance, OD405, dose response (AID 1914);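 also: secreted streptokinase activity via plasminogen activation per viability signal from cell pellet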", "type": "functional, Streptococcus pyogenes M1 GAS"}, "[20]": {"molecular_target": "Dual specificity protein kinase CLK1 (Homo sapiens, UniProt P49759)", "sequence (P49759 whole entry)": "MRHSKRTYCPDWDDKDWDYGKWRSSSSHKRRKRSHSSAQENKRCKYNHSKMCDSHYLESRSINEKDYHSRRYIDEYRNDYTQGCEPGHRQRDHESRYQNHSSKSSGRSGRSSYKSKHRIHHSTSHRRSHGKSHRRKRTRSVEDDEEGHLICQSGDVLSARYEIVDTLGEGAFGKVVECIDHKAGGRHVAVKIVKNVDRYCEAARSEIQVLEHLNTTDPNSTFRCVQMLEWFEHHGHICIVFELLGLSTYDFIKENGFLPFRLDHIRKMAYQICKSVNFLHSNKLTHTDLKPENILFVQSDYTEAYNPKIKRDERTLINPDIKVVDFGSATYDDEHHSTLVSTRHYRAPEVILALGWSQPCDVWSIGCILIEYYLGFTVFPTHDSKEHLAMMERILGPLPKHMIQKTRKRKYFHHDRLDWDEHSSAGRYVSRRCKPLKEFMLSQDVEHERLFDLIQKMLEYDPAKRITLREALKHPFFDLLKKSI", "assay": "inhibition of human CLK1 activity – biochemical, cherry-picked samples, selectivity assay for Dyrk1A inhibitor project, dose response (AID 588811)"}}, "note": "The source made the active and inactive calls.", "data": [{"smiles": "COc1ccc2c(C#N)c3ccccn3c2c1", "values": [{"measurement": "IC50", "setting": "[1]", "value": "> 99 µM (inactive)"}, {"measurement": "IC50", "setting": "[2]", "value": "> 99 µM (inactive)"}, {"measurement": "IC50", "setting": "[3]", "value": "> 50 µM (not active)"}, {"measurement": "IC50", "setting": "[4]", "value": "16.6 µM (active)"}, {"measurement": "IC50", "setting": "[5]", "value": "> 99 µM (inactive)"}, {"measurement": "IC50", "setting": "[6]", "value": "54.8 µM (active)"}, {"measurement": "IC50", "setting": "[7]", "value": "> 66 µM (inactive)"}, {"measurement": "IC50", "setting": "[8]", "value": "> 100 µM (inactive)"}, {"measurement": "IC50", "setting": "[9]", "value": "21.2 µM (inactive)"}, {"measurement": "AC50", "setting": "[10]", "value": "0.242 µM (active)"}, {"measurement": "IC50", "setting": "[11]", "value": "> 100 µM (inactive)"}, {"measurement": "IC50", "setting": "[12]", "value": "65.4 µM (active)"}]}, {"smiles": "CN(C)c1ccc(N=Nc2ccc(S(=O)(=O)O)cc2)c2ccccc12", "values": [{"measurement": "IC50", "setting": "[13]", "value": "46.2 µM (active)"}, {"measurement": "EC50", "setting": "[14]", "value": "> 114 µM (inactive)"}, {"measurement": "EC50", "setting": "[15]", "value": "69 µM (inactive)"}]}, {"smiles": "O=c1c2c(n3nnnc3n1Cc1ccccc1)-c1ccccc1CC21CCCC1", "values": [{"measurement": "IC50", "setting": "[16]", "value": "0.2 µM (active)"}, {"measurement": "EC50", "setting": "[17]", "value": "> 150 µM (not active)"}, {"measurement": "EC50", "setting": "[18]", "value": "26.3 µM (active)"}, {"measurement": "EC50", "setting": "[19]", "value": "6.74 µM (active)"}]}, {"smiles": "CSCC(=O)Nc1nc(-c2ccc3c(c2)OCCO3)cs1", "values": [{"measurement": "AC50", "setting": "[20]", "value": "8.63 µM (active)"}]}]}
